{"source": "patent US4401430A", "about": "“Method of and apparatus for detoxifying mammalian hosts” (priority 1981, dated 1983)", "key": {"human albumin [1]": {"test_system": "human albumin", "protocol": "Imipramine HCl, an antidepressant, was added to a human albumin solution at room temperature and allowed to equilibrate. Differential solution pH changes, related to free drug concentration, were measured. Ethanol concentrations of 0, 0.2, 0.4, 0.6, 0.8 and 1.0% v/v were tested."}, "[2]": {"assay": "Effectiveness as liberating agent for thiopental (general statement)", "type": "in vitro ADME", "settings": "specific drugs such as thiopental", "source_text": "(§1) The term \"liberating agent\" as used herein defines a reagent which when added to a body fluid, increases the ratio of a free soluble chemical to the total content of that chemical in the body fluid. The total content is the aggregate of both the free soluble and bound states of the chemical. More than one physical mechanism can be encountered with the same resultant advantageous partitioning of the target chemical from the bound to the free soluble phase. […] In general, liberating agents as herein defined are useful in body fluids and in vivo."}, "[3]": {"settings": "less than two percent by volume (% v/v); barbiturates (thiopental, secobarbital, pentobarbital), tricyclics (imipramine, chlorpromazine)", "source_text": "as §1"}, "human albumin [4]": {"test_system": "human albumin", "assay": "Free chlorpromazine in human albumin solution with ethanol (differential solution pH change)", "type": "in vitro ADME", "settings": "ethanol 0 to 1.0% v/v; room temperature", "procedure": "Chlorpromazine HCl, a tranquilizer, was added to a human albumin solution at room temperature and allowed to equilibrate. Differential solution pH changes, related to free drug concentration, were measured."}, "[5]": {"assay": "Effectiveness as liberating agent for bilirubin (general statement)", "type": "in vitro ADME", "source_text": "as §1"}, "[6]": {"assay": "Free drug concentration of thiopental in fresh human plasma with ethanol (thin layer chromatography)", "type": "in vitro ADME", "settings": "ethanol 0 to 1.0% v/v, room temperature", "protocol": "Thiopental was added to fresh human plasma at room temperature and allowed to equilibrate. Thin layer chromatography, used as an indicator of free drug concentration, was compared to thiopental calibrated plates. Ethanol concentrations of 0, 0.1, 0.2, 0.3, 0.4, 0.5, 0.6, 0.7, 0.8 and 1.0% v/v were tested. A maximum free drug concentration occurred at and above 0.6% v/v."}, "[7]": {"assay": "Thiopental in fresh human plasma with ethanol, equilibrated with coated activated charcoal (uv relative absorbance)", "type": "in vitro ADME", "protocol": "Thiopental was added to fresh human plasma at room temperature and allowed to equilibrate. Relative absorbances, proportional to free drug concentration, were measured spectrophotometrically (uv). Ethanol concentrations of 0, 0.4, 0.7, 1.0, and 1.4% v/v were tested. Drug/plasma and drug/plasma/ethanol solutions were equilibrated with coated activated charcoal."}, "human albumin [8]": {"test_system": "human albumin", "assay": "Free thiopental in human albumin solution with sodium lauryl sulfate (differential solution pH change)", "type": "in vitro ADME", "settings": "sodium lauryl sulfate 0, 2, 4, 6, 8, and 10 mg/ml; room temperature", "procedure": "Thiopental was added to a human albumin solution at room temperature and allowed to equilibrate. Differential solution pH changes, related to free drug concentration, were measured."}}, "note": "Where a name gives a salt, the structure may show the parent alone. Read-outs that look alike come from different tables or passages of the source.", "data": [{"smiles": "CN(C)CCCN1c2ccccc2CCc2ccccc21", "note": "[Imipramine HCl]", "values": [{"measurement": "free soluble drug concentration (differential pH responses)", "setting": "human albumin [1]", "value": "significant increases in the free soluble drug concentration"}]}, {"smiles": "CCCCCCCCCCCC(=O)O", "note": "[lauric acid]", "values": [{"measurement": "effectiveness as liberating agent", "setting": "[2]", "value": "effective"}]}, {"smiles": "CCO", "note": "[ethanol]", "values": [{"measurement": "effectiveness as liberating agent", "setting": "[3]", "value": "effective"}]}, {"smiles": "CCCCCCCCCCCCS(=O)(=O)[O-].[Na+]", "note": "[sodium lauryl sulfonate]", "values": [{"measurement": "effectiveness as liberating agent", "setting": "[2]", "value": "effective"}]}, {"smiles": "CN(C)CCCN1c2ccccc2Sc2ccc(Cl)cc21", "note": "[Chlorpromazine HCl]", "values": [{"measurement": "free soluble concentration of the drug", "setting": "human albumin [4]", "value": "increases in free soluble concentration"}]}, {"smiles": "CC(=O)Oc1ccccc1C(=O)O", "note": "[acetylsalicylic acid]", "values": [{"measurement": "specificity as liberating agent", "setting": "[5]", "value": "specific for bilirubin"}]}, {"smiles": "CCCC(C)C1(CC)C(=O)NC(=S)NC1=O", "note": "(centres unmarked) [Thiopental]", "values": [{"measurement": "ethanol concentration at and above which maximum free drug concentration occurred", "setting": "[6]", "value": "≥ 0.6", "unit": "% v/v"}, {"measurement": "adsorption of the drug by charcoal", "setting": "[7]; 0 to 1.4% v/v ethanol", "value": "significant increased adsorption of the drug by charcoal"}, {"measurement": "change in relative absorbance", "setting": "[7]; from 0 to 1.4% v/v ethanol", "value": 13, "unit": "%"}, {"measurement": "differential solution pH change", "setting": "human albumin [8]", "value": "continuous pH change"}, {"measurement": "free soluble drug concentration", "setting": "human albumin [8]", "value": "increasing free soluble drug concentrations"}]}]}
